Drawing on patent US8759295B2, “Peptide-peptidase inhibitor conjugates and methods of using same” (Amylin Pharmaceuticals, LLC, priority 2006, dated 2014), this text covers IC50 for 1 compound.

This assay deals with T1, ACE from rabbit lung (Oryctolagus cuniculus, UniProt P12822).
T1 construct: ACE from rabbit lung, Sigma Chemical Co., St. Louis, Mo; purchased Sigma Chemical Co., St. Louis, Mo; host or cells: rabbit lung (tissue-derived enzyme)
T1 sequence (P12822 34-1310): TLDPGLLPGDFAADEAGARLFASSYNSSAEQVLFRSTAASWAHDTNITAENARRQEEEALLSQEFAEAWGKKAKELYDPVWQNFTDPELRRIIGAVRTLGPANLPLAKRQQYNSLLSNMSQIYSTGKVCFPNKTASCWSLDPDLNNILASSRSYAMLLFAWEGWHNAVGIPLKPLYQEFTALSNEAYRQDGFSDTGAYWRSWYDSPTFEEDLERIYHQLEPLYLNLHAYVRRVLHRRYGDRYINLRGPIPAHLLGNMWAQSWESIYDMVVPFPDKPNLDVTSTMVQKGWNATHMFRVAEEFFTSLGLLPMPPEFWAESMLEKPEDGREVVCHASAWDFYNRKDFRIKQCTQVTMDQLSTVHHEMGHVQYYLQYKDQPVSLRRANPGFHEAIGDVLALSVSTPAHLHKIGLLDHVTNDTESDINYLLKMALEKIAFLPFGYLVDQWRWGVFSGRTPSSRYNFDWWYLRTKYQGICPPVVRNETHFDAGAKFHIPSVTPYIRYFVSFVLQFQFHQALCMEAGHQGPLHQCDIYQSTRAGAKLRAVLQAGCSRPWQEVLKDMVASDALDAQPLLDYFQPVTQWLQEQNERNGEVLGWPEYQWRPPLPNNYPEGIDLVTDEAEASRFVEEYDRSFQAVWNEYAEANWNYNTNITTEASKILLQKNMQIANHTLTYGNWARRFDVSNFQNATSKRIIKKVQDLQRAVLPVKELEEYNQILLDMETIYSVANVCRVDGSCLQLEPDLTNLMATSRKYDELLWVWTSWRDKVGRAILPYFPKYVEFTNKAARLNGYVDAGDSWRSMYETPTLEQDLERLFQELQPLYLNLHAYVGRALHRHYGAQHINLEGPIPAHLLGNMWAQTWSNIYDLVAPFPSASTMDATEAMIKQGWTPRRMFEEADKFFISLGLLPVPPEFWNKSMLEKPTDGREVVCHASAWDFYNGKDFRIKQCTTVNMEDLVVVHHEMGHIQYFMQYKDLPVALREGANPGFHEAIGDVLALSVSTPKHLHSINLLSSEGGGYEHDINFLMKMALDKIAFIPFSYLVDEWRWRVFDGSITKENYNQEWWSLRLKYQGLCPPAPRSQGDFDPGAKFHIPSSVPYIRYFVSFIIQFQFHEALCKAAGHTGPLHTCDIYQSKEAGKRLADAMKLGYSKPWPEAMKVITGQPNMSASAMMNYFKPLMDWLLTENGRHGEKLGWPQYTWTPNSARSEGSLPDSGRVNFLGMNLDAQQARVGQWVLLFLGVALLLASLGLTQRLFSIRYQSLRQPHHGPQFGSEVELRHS
Briefly: ACE inhibition assay. Type of assay: biochemical. How it is done:
Peptide-ACE peptidase inhibitor conjugate compounds were assessed in an ACE inhibition assay using purified ACE enzyme and chromogenic substrates. An ACE stock solution was prepared by dissolving 0.1 unit of enzyme (ACE from rabbit lung, Sigma Chemical Co., St. Louis, Mo.) in 0.640 mL of HEPES buffer (0.1 M, pH=8). A 2 mM stock solution of substrate (N-benzyloxycarbonyl-Phe-His-Leu-OH) dissolved in methanol. The ACE inhibitor compounds were dissolved in phosphate buffer (0.1 M, pH=8) at concentrations of 0.0, 1, 10, 20, 60 and 100 μM. For the inhibition assay, six 2 mL microcentrifuge tubes were prepared containing 1.45 mL of phosphate buffer pH=8, 0.05 mL of 10% NaCl and 0.015 mL of substrate solution. To each microcentrifuge tube was added 0.015 mL of one of the ACE inhibitor compound's stock solutions. The solutions were heated at 37° C. for about 5 minutes. […] Initial rates were determined from linear portions of product release curves. […] Apparent binding constants (Kd^app or Ki^app) of inhibitors to ACE were determined by fitting inhibition curves (initial rate vs. inhibitor concentration) to equation:
[formula] where v0 is reaction rate in the absence of inhibitor and [I]—inhibitor concentration. Fits were done by least-squares method using KaleidaGraph 3.6 (Synergy Software, Reading Pa.).

What is called IC50 is the point on the concentration scale where inhibition reaches its midpoint. On to `CC[C@H](C)[C@H](NC(=O)[C@H](Cc1ccccc1)NC(=O)[C@H](CCC(=O)O)NC(=O)[C@H](CCCCN)NC(=O)[C@H](C)NC(=O)[C@H](C)NC(=O)[C@H](CCC(N)=O)NC(=O)CNC(=O)[C@H](CCC(=O)O)NC(=O)[C@H](CC(C)C)NC(=O)[C@H](Cc1ccc(O)cc1)NC(=O)[C@H](CO)NC(=O)[C@H](CO)NC(=O)[C@@H](NC(=O)[C@H](CC(=O)O)NC(=O)[C@H](CO)NC(=O)[C@@H](NC(=O)[C@H](Cc1ccccc1)NC(=O)[C@@H](NC(=O)CNC(=O)[C@H](CCC(=O)O)NC(=O)[C@H](C)NC(=O)[C@@H](N)Cc1c[nH]cn1)[C@@H](C)O)[C@@H](C)O)C(C)C)C(=O)N[C@@H](C)C(=O)N[C@@H](Cc1c[nH]c2ccccc12)C(=O)N[C@@H](CC(C)C)C(=O)N[C@H](C(=O)N[C@@H](CCCCN)C(=O)NCC(=O)N[C@@H](CCCNC(=N)N)C(=O)NCC(=O)NCCCC(=O)NCCCC[C@H](NC(=O)[C@@H]1CCC(=O)N1)C(=O)N[C@@H](Cc1c[nH]c2ccccc12)C(=O)N[C@@H](C)C(=O)N1CCC[C@H]1C(=O)O)C(C)C` [3633/38, GLP-1-(7-37)-γ-Abu-N^ε2Lys-(Pyr)-WAP-OH], for which the IC50 is above 10 µM.
